From patent publication US20140235776A1, “AMINOALCOHOL COMPOUNDS AND THEIR USE AS ZERO OR LOW VOC ADDITIVES FOR PAINTS AND COATINGS” (ANGUS CHEMICAL COMPANY, priority 2011, published 2014) come the findings set out here.

Common to all, as to type: physicochemical
The nature of data set [1]: pKa of neutralizing amines.
Data set [2] is described as follows: VOC testing according to ASTM D6886-rev (gas chromatography). The following applies: neutralizer in a finished paint formulation, GC conditions of Table 2. The method, then: VOC properties are tested according to the ASTM D6886-rev method.
The nature of data set [3]: Krebs-units (KU) low shear viscosity of paint, ASTM D562. The method, then: (§1) The pH of each formulation is measured with a digital pH meter with a glass combination pH probe. Krebs-units (KU) viscosity is measured with Brookfield model KU viscometer with digital display (ASTM D562), at 25° C. The high shear (“ICI”) viscosity is measured according to ASTM D 4287 using a Brookfield CAP 1000+ viscometer at a shear rate of 12,000 s^−1 at 900 rpm, with a 0.45° cone of radius 1.511 cm, and a sample temperature controlled at 25° C.

Data set [4] can be described thus: High shear (ICI) viscosity of paint, ASTM D 4287. The following applies: in P (unit assumed). The procedure: as §1
A short description of data set [5]: pH of paint formulation (digital pH meter). The following applies: for pH: Zero VOC Flat Formulation, vinyl acrylic latex; for pH, 1 day 25° C.: Zero VOC Semi Gloss Formulation, acrylic latex. The method, then: pH, Low Shear and High Shear Viscosity.
The pH of each formulation is measured with a digital pH meter with a glass combination pH probe. Krebs-units (KU) viscosity is measured with Brookfield model KU viscometer with digital display (ASTM D562), at 25° C.

Data set [6] is described as follows: Freeze-thaw cycles of paint samples, viscosity by Krebs Stormer Viscometer. The following applies: for freeze-thaw survival of paint sample (in words): added as post-add, 2 wt %; for Viscosity after Freeze-Thaw cycles (KU), 2nd cycle / Viscosity after Freeze-Thaw cycles (KU), 3rd cycle / Viscosity after Freeze-Thaw cycles (KU), 4th cycle / Viscosity after Freeze-Thaw cycles (KU), 5th cycle / Viscosity after Freeze-Thaw cycles (KU), 1st cycle: additive 2 wt %; for Initial Viscosity (KU): additive 2 wt % post-add in paint of Table 8, before freeze-thaw; for Viscosity after Freeze-Thaw cycles (KU), 1st cycle: cycle = −18° C. 17 hours, 25° C. 7 hours. The procedure: Preparation of paint formulations containing compounds of the invention: The paint formulations are prepared using F/T agent 1 and 2 as shown by structures below. The octanol water partition coefficients are calculated for these compounds using the method of Moriguchi et al., Chem. Pharm. Bull. 40(1), 127-130 (1992). The calculated octanol-water partition coefficients for F/T-1 and F/T-2 are −2.59, and −3.99, respectively. […] Paint samples are frozen at −18° C. for 17 hours and then thawed at 25° C. for 7 hours. This constitutes 1 complete freeze-thaw cycle. Viscosities are measured after each freeze-thaw cycle using a Krebs Stormer Viscometer from Sheen at room temperature. The viscosity is measured in Krebs unit (KU). The results of freeze-thaw cycles on paint samples that contain zero-VOC compounds of the invention as post-adds are listed in the Table 9. The post-add compounds are mixed at 2 wt % in the paint samples. The same paint formulation is used in preparing all the samples. The paint sample without any post-add is designated as “Blank.”
The KU values below 150 as reported in Table 9 are considered acceptable, and all the values (other than that for the Blank) reported are considered very acceptable.

Setting [7] is: read-out: pKa (first value, pK1).
Setting [8] is: read-out: pKa (second value, pK2).
Where [9] appears, read: Zero VOC Semi Gloss Formulation.

Where two headings read alike, the source gives them in different places.

Broadly, the pKa is the negative logarithm of the acid dissociation constant. On to `CC(O)CNCCN(CCNCCN(CCNCC(C)O)CC(C)O)CC(C)O` (centres unmarked) [TEPA 4PO, 7,13-bis(2-hydroxypropyl)-4,7,10,13,16-pentaazanonadecane-2,18-diol], for which the pKa came out at 8.7 in data set [1] (setting [7]) and 4.8 in data set [1] (setting [8]). The “VOC contributed by neutralizers” value in data set [2] is recorded as 0%^2.
`[Na+].[OH-]` [NaOH, sodium hydroxide, reference compound]: the “KU Viscosity, 1 day 25° C.” value in data set [3] (Zero VOC Flat Formulation) is recorded as 86 KU; in data set [3] (setting [9]) it was 89.1 KU. Besides, the “ICI Viscosity, 1 day 25° C.” value is reported as 1.184 in data set [4] (Zero VOC Flat Formulation) and 1.059 in data set [4] (setting [9]). Further, the pH in data set [5] was found to be 8.56. Moreover, the “pH, 1 day 25° C.” value in data set [5] came to 9.47.
In the case of `OCC(O)CNCCN(CCNCC(O)CO)CC(O)CO` (centres unmarked) [F/T Agent 1, 3,3′-((((2,3-dihydroxypropyl)azanediyl)bis(ethane-2,1-diyl))bis(azanediyl))bis(propane-1,2-diol)], in data set [6], the “freeze-thaw survival of paint sample (in words)” value is “survive five freeze-thaw cycles”; the “Viscosity after Freeze-Thaw cycles (KU), 2nd cycle” value is 111.1 KU; the “Viscosity after Freeze-Thaw cycles (KU), 3rd cycle” value stood at 112.7 KU; the “Viscosity after Freeze-Thaw cycles (KU), 4th cycle” value is recorded as 111.8 KU. Also, in data set [6], the “Viscosity after Freeze-Thaw cycles (KU), 5th cycle” value was determined as 109.5 KU; the “Initial Viscosity (KU)” value is 89.5 KU; the “Viscosity after Freeze-Thaw cycles (KU), 1st cycle” value is 108 KU.
For `OCCOCCO` [Diethylene Glycol, diethylene glycol, reference compound], in data set [6], the “Viscosity after Freeze-Thaw cycles (KU), 2nd cycle” value worked out at 105.1 KU; the “Viscosity after Freeze-Thaw cycles (KU), 3rd cycle” value worked out at 106.9 KU; the “Viscosity after Freeze-Thaw cycles (KU), 4th cycle” value is on record as 100.6 KU; the “Viscosity after Freeze-Thaw cycles (KU), 5th cycle” value is given as 98 KU. In addition, in data set [6], the “Initial Viscosity (KU)” value came to 91.0 KU and the “Viscosity after Freeze-Thaw cycles (KU), 1st cycle” value turned out to be 101.1 KU.
In the case of `CC(C)(N)CNCCOCCOCCNCC(C)(C)N` [EDBDA bis-AMP, N1,N1′-((ethane-1,2-diylbis(oxy))bis(ethane-2,1-diyl))bis(2-methylpropane-1,2-diamine), reference compound], the figures for the pKa in data set [1] (setting [7]) and in data set [1] (setting [8]) were 9.7 and 5.8, respectively. Also, the “VOC contributed by neutralizers” value in data set [2] came to 0%^2.
Regarding `CC(O)CNCCNCCN(CCNCC(C)O)CC(C)O` (centres unmarked) [TETA 3PO, 7-(2-hydroxypropyl)-4,7,10,13-tetraazahexadecane-2,15-diol], the figures for the “KU Viscosity, 1 day 25° C.” value in data set [3] (Zero VOC Flat Formulation) and in data set [3] (setting [9]) were 92.8 KU and 85.9 KU, respectively. The entries for the “ICI Viscosity, 1 day 25° C.” value in data set [4] (Zero VOC Flat Formulation) and in data set [4] (setting [9]) were 1.29 and 1.018, respectively. Further, the pH in data set [5] is recorded as 8.51. In data set [5], the “pH, 1 day 25° C.” value is 9.46.
Turning to `OCC(O)CN(CCN(CC(O)CO)CC(O)CO)CCN(CC(O)CO)CC(O)CO` (centres unmarked) [F/T Agent 2, 3,3′,3″,3′′′-((((2,3-dihydroxypropyl)azanediyl)bis(ethane-2,1-diyl))bis(azanetriyl))tetrakis(propane-1,2-diol)], in data set [6], the “freeze-thaw survival of paint sample (in words)” value is “survive five freeze-thaw cycles”; the “Viscosity after Freeze-Thaw cycles (KU), 2nd cycle” value turned out to be 113.1 KU; the “Viscosity after Freeze-Thaw cycles (KU), 3rd cycle” value is on record as 114 KU; the “Viscosity after Freeze-Thaw cycles (KU), 4th cycle” value amounted to 121.7 KU. Moreover, in data set [6], the “Viscosity after Freeze-Thaw cycles (KU), 5th cycle” value was 116.3 KU; the “Initial Viscosity (KU)” value was determined as 88.2 KU; the “Viscosity after Freeze-Thaw cycles (KU), 1st cycle” value is listed as 110.4 KU.
Turning to `CC(O)CO` (centres unmarked) [Propylene Glycol, propylene glycol, reference compound], in data set [6], the “Viscosity after Freeze-Thaw cycles (KU), 2nd cycle” value was found to be 103.2 KU; the “Viscosity after Freeze-Thaw cycles (KU), 3rd cycle” value is recorded as 115.1 KU; the “Viscosity after Freeze-Thaw cycles (KU), 4th cycle” value was determined as 99.4 KU; the “Viscosity after Freeze-Thaw cycles (KU), 5th cycle” value is given as 98.2 KU. For the same molecule, in data set [6], the “Initial Viscosity (KU)” value stood at 89.8 KU and the “Viscosity after Freeze-Thaw cycles (KU), 1st cycle” value was 101.3 KU.
For the molecule `OCC(O)CNCCN(CCNCC(O)CO)CC(O)CO` (centres unmarked) [DETA Glyc, 3,3′-((((2,3-dihydroxypropyl)azanediyl)bis(ethane-2,1-diyl))bis(azanediyl))bis(propane-1,2-diol)], the results for the pKa in data set [1] (setting [7]) and in data set [1] (setting [8]) were 8.9 and 4.6, respectively. In addition, the “VOC contributed by neutralizers” value in data set [2] was 0%^2.
